Data as given in patent publication US20080280303A1, “G-PROTEIN COUPLED RECEPTORS HIGH-[…]” (priority 2003, published 2008).

Assays:
Format in all cases: cell-based
EPAC = target: T1, EPAC (Homo sapiens, UniProt O95398); assay: R-SAT proliferation, EPAC co-expressed with ras/rapAA, with or without 8-Br cAMP; conditions: 250 uM 8-Br cAMP; ras/rapAA 20 ng per well
T1 construct: expressed in transfected cells; host or cells: NIH 3T3
T1 sequence (O95398 1-923): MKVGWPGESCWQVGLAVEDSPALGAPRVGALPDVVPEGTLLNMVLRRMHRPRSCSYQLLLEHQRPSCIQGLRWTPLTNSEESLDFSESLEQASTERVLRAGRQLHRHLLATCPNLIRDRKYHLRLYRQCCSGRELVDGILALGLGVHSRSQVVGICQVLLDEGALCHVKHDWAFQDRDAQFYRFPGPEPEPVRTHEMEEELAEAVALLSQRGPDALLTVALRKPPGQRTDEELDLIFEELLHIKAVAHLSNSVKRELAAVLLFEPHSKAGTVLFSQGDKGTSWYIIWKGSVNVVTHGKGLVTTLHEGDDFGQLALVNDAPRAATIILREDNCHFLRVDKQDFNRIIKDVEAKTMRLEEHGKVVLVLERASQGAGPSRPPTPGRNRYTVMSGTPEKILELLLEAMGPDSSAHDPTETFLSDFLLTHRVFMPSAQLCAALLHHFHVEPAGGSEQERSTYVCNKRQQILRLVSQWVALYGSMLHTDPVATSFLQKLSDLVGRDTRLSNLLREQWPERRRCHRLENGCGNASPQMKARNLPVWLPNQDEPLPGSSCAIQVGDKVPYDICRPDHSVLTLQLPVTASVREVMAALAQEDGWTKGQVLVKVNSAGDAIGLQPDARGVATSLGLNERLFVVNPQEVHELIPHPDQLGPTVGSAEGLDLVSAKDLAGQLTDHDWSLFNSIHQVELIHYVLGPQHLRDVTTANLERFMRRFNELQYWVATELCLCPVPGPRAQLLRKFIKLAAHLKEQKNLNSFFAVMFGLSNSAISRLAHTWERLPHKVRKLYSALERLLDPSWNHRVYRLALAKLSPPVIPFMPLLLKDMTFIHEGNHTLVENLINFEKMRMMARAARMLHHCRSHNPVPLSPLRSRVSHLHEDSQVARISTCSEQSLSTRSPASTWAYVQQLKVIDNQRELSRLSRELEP
Method: FIG. 2. Characterization of regulation and signaling properties of ras/rap chimeras. A) Proliferative responses of ras, rap, and ras/rap measured in R-SAT. 4 ng/well each of wild-type or GTPase deficient (V 12) mutants of ras, rap1A, or ras/rap1A (24) were transfected and analyzed for proliferative responses as described in Methods. B & C) Rap-selective exchange factors activate cellular proliferation in a ras/rap chimera dependent manner. B) Synergy of EPAC with ras/rap chimeras. Two ng per well of the rap selective exchange factor EPAC was co-expressed with 20 ng per well of either rap1B, ras/rap1A, ras/rap1B, ras/rapAA, or control vector and analyzed for proliferative responses as described above. C) Synergy of C3G with ras/rap chimeras. Twenty ng per well of the rap selective exchange factor C3G (68) was co-expressed with 20 ng per well of either rap1B, ras/rap1A, ras/rap1B, ras/rapAA, or control vector and analyzed for proliferative responses as described above. D) The indicated doses (ng per well) of EPAC were co-expressed with 20 ng per well of ras/rapAA in the presence or absence of 250 uM 8-Br cAMP and analyzed for proliferative responses as described above. […] Either 10 ng per well of control vector, ras or ras/rapAA was co-expressed with EPAC (2 ng per well), C3G (10 ng per well), or Sos2 (10 ng per well) and analyzed for proliferative responses. […]

5HT1E serotonin receptor = target: T2, 5HT1E serotonin receptor (Homo sapiens, UniProt P28566); assay: R-SAT cellular proliferation, 5HT1E co-expressed with ras/rapAA, with or without pertussis toxin; conditions: 100 ug/ml pertussis toxin; agonist BRL54443; NIH 3T3 cells
T2 construct: expressed in transfected cells; host or cells: NIH 3T3
T2 sequence (P28566 whole entry): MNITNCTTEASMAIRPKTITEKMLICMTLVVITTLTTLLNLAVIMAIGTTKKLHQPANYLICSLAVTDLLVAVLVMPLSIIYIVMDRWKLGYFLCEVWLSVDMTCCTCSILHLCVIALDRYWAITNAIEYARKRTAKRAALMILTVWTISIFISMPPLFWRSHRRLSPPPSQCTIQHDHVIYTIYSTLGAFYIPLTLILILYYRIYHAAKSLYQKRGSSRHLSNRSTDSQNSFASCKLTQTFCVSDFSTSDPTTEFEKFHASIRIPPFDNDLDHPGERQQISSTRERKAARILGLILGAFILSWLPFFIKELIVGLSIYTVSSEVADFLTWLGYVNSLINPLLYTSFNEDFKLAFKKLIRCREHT
Method: (§1) FIG. 4. Pertussis toxin sensitivity of ras/rap dependent proliferative responses to Gs-coupled and Gi-coupled GPCRs. A) D1 (4 ng per well) and ras/rapAA (20 ng per well) were co-expressed and analyzed for proliferative responses in the presence or absence of 100 ug/ml pertussis toxin in the presence of the indicated concentrations of SKF81297. B) 5HT1E (20 ng per well) and ras/rapAA (20 ng per well) were co-expressed and analyzed for proliferative responses in the presence or absence of 100 ug/ml pertussis toxin in the presence of the indicated concentrations of BRL54443. C) D2 (4 ng/well), alpha2C (20 ng/well), and SST5 (4 ng/well) were each expressed with ras/rapAA (20 ng/well), incubated with the indicated concentrations of ligand and either with or without 100 ng/ml pertussis toxin (PTX) and analyzed for proliferative responses as described above. Control represents the receptors expressed alone.
(§2) Functional assays. […] After five days in culture β-galactosidase levels were measured essentially as described (35). […] After 3 hr the plates were read at 420 nm on a plate-reader (Bio-Tek EL 310 or Molecular Devices). […]

D1 dopamine receptor = target: T3, D1 dopamine receptor (Homo sapiens, UniProt P21728); assay: R-SAT cellular proliferation, D1 co-expressed with ras/rapAA, with or without pertussis toxin; conditions: 100 ug/ml pertussis toxin; agonist SKF81297; NIH 3T3 cells
T3 construct: expressed in transfected cells; host or cells: NIH 3T3
T3 sequence (P21728 whole entry): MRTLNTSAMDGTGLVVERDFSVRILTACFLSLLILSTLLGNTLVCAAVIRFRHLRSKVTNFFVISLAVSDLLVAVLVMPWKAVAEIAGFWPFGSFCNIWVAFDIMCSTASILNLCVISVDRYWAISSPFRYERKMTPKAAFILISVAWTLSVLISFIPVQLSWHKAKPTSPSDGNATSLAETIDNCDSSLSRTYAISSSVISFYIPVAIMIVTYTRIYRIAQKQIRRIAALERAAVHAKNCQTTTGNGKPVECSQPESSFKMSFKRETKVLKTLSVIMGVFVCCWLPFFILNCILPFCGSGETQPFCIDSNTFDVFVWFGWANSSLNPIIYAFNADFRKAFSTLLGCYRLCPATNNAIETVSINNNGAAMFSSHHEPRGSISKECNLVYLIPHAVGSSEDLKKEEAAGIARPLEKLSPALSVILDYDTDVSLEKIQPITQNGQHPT
Method: as §1, §2

GPR12 = target: T4, GPR12 (Homo sapiens, UniProt P47775); assay: R-SAT constitutive proliferation, orphan receptor with ras/rapAA and ACII, with or without pertussis toxin; conditions: PTX, 100 ng/ml
T4 construct: expressed in transfected cells
T4 sequence (P47775 1-334): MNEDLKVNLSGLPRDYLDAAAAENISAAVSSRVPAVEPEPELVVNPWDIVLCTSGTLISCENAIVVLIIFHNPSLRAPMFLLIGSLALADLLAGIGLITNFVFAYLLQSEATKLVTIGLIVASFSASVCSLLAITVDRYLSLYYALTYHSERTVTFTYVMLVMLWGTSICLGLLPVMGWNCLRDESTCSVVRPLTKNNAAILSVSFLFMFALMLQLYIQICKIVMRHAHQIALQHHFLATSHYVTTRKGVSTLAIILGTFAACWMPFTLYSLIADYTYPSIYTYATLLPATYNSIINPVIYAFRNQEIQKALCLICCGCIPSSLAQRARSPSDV
Method: (§3) FIG. 7. Functional validation and characterization of orphan GPCRs using helper genes. A) The indicated receptors were expressed at two doses either alone, with ras/rapAA (20 ng/well) and ACII (2 ng/well), or Gαq (4 ng/well) and analyzed for constitutive stimulation of cellular proliferation as described above. Control represents the transfection of the same helper genes with vector substituting for receptor. The transfections were all balanced with vector to ensure the same total amount of DNA was transfected in each case. PI hydrolysis assays were carried out using tsa cells transfected with 20 ng/well of each receptor as described in Methods. B) The indicated receptors were expressed at two doses either alone, with ras/rapAA (20 ng/well) and ACII (2 ng/well), or Gαq (4 ng/well) and analyzed for constitutive stimulation of cellular proliferation as described above. Control represents the transfection of the same helper genes with vector substituting for receptor. The transfections were all balanced with vector to ensure the same total amount of DNA was transfected in each case. Cyclic AMP accumulation assays were carried out using HEK293 cells transfected with 20 ng/well of each receptor as described in Methods. C) The indicated receptors were expressed at with ras/rapAA (20 ng/well) and ACII (2 ng/well), incubated in the presence or absence of pertussis toxin (PTX, 100 ng/ml) and analyzed for constitutive stimulation of cellular proliferation as described above. Control represents the transfection of the same helper genes with vector substituting for receptor. D) The indicated receptors were tested for stimulation of cyclic AMP production as described in the experimental methods.
as §2

GPR3 = target: T5, GPR3 (Homo sapiens, UniProt P46089); assay: as above; conditions: PTX, 100 ng/ml
T5 construct: expressed in transfected cells
T5 sequence (P46089 whole entry, species assumed): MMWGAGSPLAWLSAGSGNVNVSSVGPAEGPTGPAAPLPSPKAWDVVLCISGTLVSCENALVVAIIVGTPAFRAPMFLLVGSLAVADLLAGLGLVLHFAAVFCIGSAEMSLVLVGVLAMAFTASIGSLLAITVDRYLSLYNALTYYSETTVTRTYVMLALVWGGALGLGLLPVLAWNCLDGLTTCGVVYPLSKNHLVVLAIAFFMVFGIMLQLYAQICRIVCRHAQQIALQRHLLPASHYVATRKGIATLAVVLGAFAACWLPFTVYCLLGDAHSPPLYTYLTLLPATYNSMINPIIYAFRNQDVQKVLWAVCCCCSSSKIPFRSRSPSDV
Method: as §3, §2

GPR6 = target: T6, GPR6 (Homo sapiens, UniProt P46095); assay: as above; conditions: PTX, 100 ng/ml
T6 construct: expressed in transfected cells
T6 sequence (P46095 whole entry, species assumed): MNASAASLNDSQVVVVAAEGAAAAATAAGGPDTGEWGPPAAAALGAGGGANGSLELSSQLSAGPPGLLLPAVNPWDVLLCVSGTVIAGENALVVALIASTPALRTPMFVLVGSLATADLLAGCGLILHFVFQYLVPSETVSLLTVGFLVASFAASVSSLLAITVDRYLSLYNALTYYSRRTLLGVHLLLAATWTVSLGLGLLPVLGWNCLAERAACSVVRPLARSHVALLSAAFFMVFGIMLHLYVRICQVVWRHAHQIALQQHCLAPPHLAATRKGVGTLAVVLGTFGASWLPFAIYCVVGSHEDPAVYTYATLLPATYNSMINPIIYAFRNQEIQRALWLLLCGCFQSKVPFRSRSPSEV
Method: as §3, §2

| Compound | stimulation of EPAC to induce ras/rap-dependent responses (EPAC) | effect on ras/rap dependent responses to 5HT1E (5HT1E serotonin receptor) | effect on ras/rap dependent responses to D1 (D1 dopamine receptor) | effect on helper gene dependent constitutive response to GPR12 (GPR12) | effect on helper gene dependent constitutive response to GPR3 (GPR3) | effect on helper gene dependent constitutive response to GPR6 (GPR6) |
| --- | --- | --- | --- | --- | --- | --- |
| Nc1ncnc2c1nc(Br)n2[C@@H]1O[C@@H]2COP(=O)(O)O[C@H]2[C@H]1O [8-Br cAMP] | stimulated | – | – | – | – | – |
| pertussis toxin | – | completely blocked | did not block, and slightly increased | hardly affected | hardly affected | significantly blunted |
